Data: PubChem BioAssay (NCI)
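All cell lines were grown in 96-well plates and treated with compound for 48 hours. At the GI50, growth is halved. TGI is the concentration that stops growth completely.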

Assays:
P388/ADR leukemia = assay: NCI tumour cell line growth inhibition, 48 h
SN12K1 renal = assay: NCI tumour cell line growth inhibition, 48 h

Compound | GI50 (P388/ADR leukemia) | TGI (P388/ADR leukemia) | GI50 (SN12K1 renal) | TGI (SN12K1 renal)
C[CH2][Ge]1([CH2]C)[CH2]CC2(CCN(CCCN(C)C)C2)C[CH2]1 | 1.02 µM | 1.87 µM | 1.97 µM | 4.38 µM
O=C(NC(c1ccccc1)C(O)C(=O)OCc1ccc2c(c1)C(=O)c1ccccc1C2=O)c1ccccc1 (centres undefined) | – | > 100 µM | – | 3.27 µM
COc1cccc2c1C(=N)c1c(O)c3c(c(O)c1C2=O)C[C@@](O)(C(C)=O)C[C@@H]3OC1CC(N)C(O)C(C)O1 (some centres undefined) | 13.6 µM | 51.7 µM | – | 3.05 µM
